Test results: article PMC8724216, “Biochemical and structural characterization of beta-carbonic anhydrase from the parasite Trichomonas vaginalis” (Journal of Molecular Medicine (Berlin, Germany), 2021)

What follows are compounds tested against T1, TvaCA2 (Trichomonas vaginalis, UniProt A2DLG4) (assay: stopped-flow CO2 hydration, phenol red). Conditions: read-out: TvaCA2 β.
T1 construct: gene TVAG_268150; recombinant in E. coli BL21 Star (DE3), pBVboostFG; 6xHis-tag removed by thrombin; 185 residues; homodimer, zinc
T1 sequence (A2DLG4 1-184): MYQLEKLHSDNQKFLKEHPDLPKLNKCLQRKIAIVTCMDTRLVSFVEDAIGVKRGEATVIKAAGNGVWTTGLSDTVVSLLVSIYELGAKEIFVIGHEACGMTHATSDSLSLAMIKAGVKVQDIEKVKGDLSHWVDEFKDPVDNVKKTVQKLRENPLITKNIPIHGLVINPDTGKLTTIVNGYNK
Assay type: biochemical
With `Cc1onc(-c2ccccc2)c1-c1ccc(S(N)(=O)=O)cc1` [VLX, valdecoxib] the Ki was over 10 µM.
`NS(=O)(=O)c1ccc(S(=O)(=O)Nc2cccc3c(Cl)c[nH]c23)cc1` [IND, indisulam] was tested, and the Ki was over 10 µM.
With `Nc1nnc(S(N)(=O)=O)s1` [compound 13, 5-amino-1,3,4-thiadizole-2-sulfonamide] the Ki was 1.15 µM.
In the case of `Cc1ccc(-c2cc(C(F)(F)F)nn2-c2ccc(S(N)(=O)=O)cc2)cc1` [CLX, celecoxib], the Ki is reported as over 10 µM.
With `NS(=O)(=O)c1cc2c(cc1Cl)NCNS2(=O)=O` [HCT] the Ki was 3.06 µM.
With `Nc1cc(C(F)(F)F)c(S(N)(=O)=O)cc1S(N)(=O)=O` [compound 11, 4-amino-6-trifluoromethyl-benzene-1,3-disulfonamide] the Ki was 0.44 µM.
Compound `NS(=O)(=O)c1nnc(NS(=O)(=O)c2ccccc2)s1` [BZA] has a Ki of 4.21 µM.
`CC(=O)N=c1sc(S(N)(=O)=O)nn1C` [MZA, methazolamide] showed a Ki of 0.39 µM.
Compound `O=C1NS(=O)(=O)c2ccccc21` [SAC, saccharin] has a Ki of over 10 µM.
With `NS(=O)(=O)c1cccc(S(N)(=O)=O)c1` [compound 3, 1,3-disulfamoyl benzene] the Ki was 0.446 µM.
`Nc1cc(Cl)c(S(N)(=O)=O)cc1S(N)(=O)=O` [compound 12, 4-amino-6-chloro-1,3-benzenedisulfonamide] was tested, and the Ki was 0.382 µM.
`CCN[C@H]1CN(CCCOC)S(=O)(=O)c2sc(S(N)(=O)=O)cc21` [BRZ] was tested, and the Ki was 3.23 µM.
With `CCN1CCCC1CNC(=O)c1cc(S(N)(=O)=O)ccc1OC` (centres unmarked) [SLP, sulpride] the Ki was over 10 µM.
Work on `NS(=O)(=O)Cc1noc2ccccc12` [ZNS, zonisamide] yielded a Ki of over 10 µM.
`NS(=O)(=O)c1ccc(N2CCCCS2(=O)=O)cc1` [SLT, sulthiame] showed a Ki of over 10 µM.
Work on `Nc1ccc(S(N)(=O)=O)cc1Br` [compound 9, 3-bromo-4-amino-benzenesulfonamide] yielded a Ki of over 10 µM.
`CC1(C)O[C@@H]2[C@@H](CO[C@@]3(COS(N)(=O)=O)OC(C)(C)O[C@@H]23)O1` [TPM, topiramate] showed a Ki of over 10 µM.

These compounds were tested against T1, TvaCA2 (assay: biochemical). Conditions: inhibitor; read-out: TvaCA2 β.
Set-up: stopped-flow CO2 hydration, phenol red absorbance at 557 nm, 20 °C, pH 7.5, 15 min preincubation
Procedure: CA-catalyzed CO2 hydration activity was investigated with an Applied Photophysics stopped-flow instrument at 20 °C [20]. Twenty millimolar Hepes was used as buffer (pH 7.5) with 20 mM Na2SO4 (for maintaining a constant ionic strength). Phenol red of 0.2 mM was used as a pH indicator, working at a maximum absorbance of 557 nm. The initial rates of the CA-catalyzed CO2 hydration reaction were followed for 10–100 s. CO2 concentrations of 1.7–17 mM were used to determine the kinetic parameters and inhibition constants. For each inhibitor, the initial velocity was determined by using ≥ 6 traces of the initial 5–10% of the reaction. The uncatalyzed rates were determined similarly and subtracted from the total observed rates. DSMO was used at 5% to make the stock solution, from which 0.1 mM inhibitor solutions were prepared in dH2O. Subsequently, dilutions up to 0.01 nM were prepared with dH2O. Inhibitor and enzyme solutions were preincubated together (15 min, room temperature) prior to the assay to allow the formation of the enzyme–inhibitor complex. The inhibition constants were obtained by nonlinear least-squares methods using PRISM 3 and represent the means from ≥ 3 different measurements. The gene sequence of the second β-CA of T. vaginalis (TvaCA2) was retrieved from Universal Protein Resource Database UniProt (protein entry A2DLG4). An Escherichia coli expression system with a multipromoter vector, pBVboostFG (Online Resource 1), was used for the expression of TvaCA2. Gene synthesis and subcloning were performed by GeneArt (Thermo Fisher Scientific, Waltham, USA). The cells (OneShot® BL21 Star™ (DE3) Chemically Competent Cells, #C601003, Thermo Fisher Scientific, Waltham, USA) were cultured in an orbital shaker (200 rpm, 37 °C) in Luria–Bertani (LB) medium supplemented with 10 mg/mL gentamicin (1:1000). The cells were harvested via centrifugation (4 °C, 15 min, 5000 × g) after reaching an optical density of 0.4–0.6, and they were mechanically disrupted with an EmulsiFlex-C3 homogenizer (AVESTIN, Ottawa, Canada) in 50 mM Na2HPO4, 0.5 M NaCl, and 50 mM imidazole binding buffer (BB; pH 8.0), and centrifuged (13,000 × g, 15 min, 4 °C). […] After incubation, the resin was packed into a chromatography column with an EMD Millipore™ vacuum filtering flask (#XX1004705, Merck, Darmstad, Germany). The protein was eluted with 50 mM Na2HPO4, 0.5 M NaCl, and 350 mM imidazole (pH 7.0). The 6xHis-tag was removed by thrombin (#RECOMT, Sigma-Aldrich, St. Louis, USA) according to the Thrombin CleanCleave™ Kit manual (Sigma-Aldrich, St. Louis, USA) followed by Ni^2+-NTA affinity chromatography. NanoDrop One (Thermo Fisher Scientific, Waltham, USA) was used to determine the protein yield, and the quality of the purified protein was analyzed by SDS-PAGE (sodium dodecyl sulfate–polyacrylamide gel electrophoresis) using a 12% polyacrylamide gel visualized with PageBlue Protein staining solution (Thermo Fisher Scientific, #24,620, Waltham, USA). The obtained polypeptide bands of the SDS-PAGE gel were identified using tandem mass spectrometry (MS/MS; Meilahti Clinical Proteomics Core Facility, […]
`NS(=O)(=O)c1ccc(CCNS(=O)(=O)c2ccc([N+](=O)[O-])cc2CO)cc1` [compound 21] gave a Ki of 4.16 µM.
`Nc1nccc(Nc2ccc(S(N)(=O)=O)cc2)n1` [compound 19] was tested, and the Ki was over 10 µM.
In the case of `Nc1cccc(S(N)(=O)=O)c1` [compound 01], the Ki is reported as 3.93 µM.
For `NS(=O)(=O)c1cc(Cl)cc(Cl)c1O` [compound 10], the Ki was over 10 µM.

Same assay, conditions: read-out: TvaCA2 β
Compound `Nc1ccc(S(N)(=O)=O)cc1F` [compound 07] has a Ki of 1.29 µM.
`Nc1ccc(S(=O)(=O)Nc2ccc(S(N)(=O)=O)cc2)cc1` [compound 22] was tested, and the Ki was 3.9 µM.
`Cn1nc(S(N)(=O)=O)sc1=N` [compound 14] was tested, and the Ki was 1.61 µM.
`Nc1ccc(S(=O)(=O)NCc2ccc(S(N)(=O)=O)cc2)cc1` [compound 23] gave a Ki of 2.26 µM.
Work on `NCc1ccc(S(N)(=O)=O)cc1` [compound 05] yielded a Ki of 4.19 µM.
For `Nc1ccc(S(N)(=O)=O)cc1Cl` [compound 08], the Ki was 3.95 µM.
Compound `Cc1ccc(S(N)(=O)=O)cc1` [compound 04] has a Ki of 1.29 µM.
Work on `NCCc1ccc(S(N)(=O)=O)cc1` [compound 06] yielded a Ki of 4.23 µM.
For `Nc1ccc(S(=O)(=O)Nc2nnc(S(N)(=O)=O)s2)cc1` [compound 20], the Ki was 1.04 µM.
Compound `NS(=O)(=O)c1ccc(C(=O)O)cc1` [compound 18] has a Ki of 1.63 µM.
Work on `Nc1ccc(S(N)(=O)=O)cc1` [compound 02] yielded a Ki of 1.29 µM.
